Results on 5 compounds are retold here after patent US12559529B2, “NPY2 receptor agonists” (Boehringer Ingelheim International GmbH, priority 2019, dated 2026).

The target of assay [1] is T1, Human Neuropeptide Y2 Receptor (Homo sapiens, UniProt P49146).
T1 construct: purchased CHEMICON HTS066M
T1 sequence (P49146 1-381): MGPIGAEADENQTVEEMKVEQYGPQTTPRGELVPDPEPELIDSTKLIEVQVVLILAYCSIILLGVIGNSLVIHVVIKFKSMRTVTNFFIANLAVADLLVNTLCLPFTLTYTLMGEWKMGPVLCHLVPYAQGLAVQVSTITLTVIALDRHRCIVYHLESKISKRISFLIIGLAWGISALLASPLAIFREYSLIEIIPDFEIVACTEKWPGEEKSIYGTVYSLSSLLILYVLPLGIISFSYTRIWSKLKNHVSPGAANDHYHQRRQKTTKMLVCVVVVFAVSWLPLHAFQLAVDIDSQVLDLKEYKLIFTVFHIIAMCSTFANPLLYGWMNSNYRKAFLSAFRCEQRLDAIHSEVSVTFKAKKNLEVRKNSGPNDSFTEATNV
The assay can be described thus: Radioligand binding competition assay (RLB). The settings on record: Table 3; human 125I-PYY (1-36) 0.02 nM, Y2 receptor membranes; read-out: Ki. The method, boiled down: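 Competition binding at commercial human NPY Y2 membrane preparations, 0.5 μg protein per well, 2 h incubation at room temperature. Bound and free ligand were separated on GF/C filters and counted; IC50 was fitted by nonlinear regression.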

For another assay, the system named is normal NMRI mice. The assay can be described thus: Effect on acute food intake in normal NMRI mice. Format: in vivo. The settings on record: male NMRI mice, 10 nmol/kg subcutaneously once. In short, it runs like this: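 A single 10 nmol/kg s.c. peptide dose was given 1 h before lights-off to male NMRI mice fasted from 6 h before the night phase (n=7-8). Intake was recorded continuously by microchip-identified HM-2 feeding channels. Values are normalized to vehicle controls (50 mM phosphate buffer pH7 with 5% Mannitol).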

Structures are written as SMILES. pKi: −log10 of the molar value.

As for `CC[C@H](C)[C@H](NC(=O)[C@H](CCC(=O)O)NC(=O)[C@H](CCC(=O)O)NC(=O)[C@@H]1CCCN1C(=O)[C@H](CCC(=O)O)NC(=O)[C@H](C)NC(=O)[C@H](CC(=O)O)NC(=O)[C@H](CCC(=O)O)NC(=O)[C@H](CCC(=O)O)NC(=O)[C@@H]1CCCN1C(=O)[C@H](CCCCNC(=O)COCCOCCNC(=O)COCCOCCNC(=O)CC[C@H](NC(=O)CCCCCCCCCCCCCCCCC(=O)O)C(=O)O)NC(=O)[C@H](CCC(=O)O)NC(=O)[C@@H]1CCCN1C(=O)[C@H](C)NC(=O)CC(C)C)C(=O)N[C@@H](CCC(N)=O)C(=O)N[C@@H](CCCNC(=N)N)C(=O)N[C@@H](Cc1ccc(O)cc1)C(=O)N[C@@H](Cc1ccc(O)cc1)C(=O)N[C@H](C(=O)N[C@@H](CO)C(=O)N[C@@H](CC(C)C)C(=O)N[C@@H](CCCNC(=N)N)C(=O)N[C@@H](Cc1c[nH]cn1)C(=O)N[C@@H](Cc1ccc(O)cc1)C(=O)N[C@@H](Cc1ccc(O)cc1)C(=O)N[C@@H](CC(N)=O)C(=O)N[C@@H](Cc1c[nH]c2ccccc12)C(=O)N[C@@H](CC(C)C)C(=O)N[C@H](C(=O)N[C@@H](CCCNC(=N)N)C(=O)N[C@@H](CCC(N)=O)C(=O)N[C@@H](CCCNC(=N)N)C(=O)N[C@@H](Cc1ccc(O)cc1)C(N)=O)[C@@H](C)O)C(C)C` [Compound 110, N{alpha-4}-(3-methylbutanoyl)-N{epsilon-7}-[2-(2-{2-[2-(2-{2-[(4S)-4-carboxy-4-(17-carboxyheptadecanamido)butanamido]ethoxy}ethoxy)acetamido]ethoxy}ethoxy)acetamido]-[4A,7K,9E,13E,17I,18Q,22V,28Y,30W,31L]hPYY (4-36)], the negative-log Ki (pKi) in assay [1] was 9.11. The “Acute Food Intake 24 h [% vehicle]” value with normal NMRI mice is given as 67 % vehicle.

Consider `CC(C)CC(=O)N[C@@H](C)C(=O)N1CCC[C@H]1C(=O)N[C@@H](CCC(=O)O)C(=O)N[C@@H](CCCCNC(=O)COCCOCCNC(=O)COCCOCCNC(=O)CC[C@H](NC(=O)CCCCCCCCCCCCCCCCC(=O)O)C(=O)O)C(=O)N1CCC[C@H]1C(=O)N[C@@H](CCC(=O)O)C(=O)N[C@@H](CCC(=O)O)C(=O)N[C@@H](CCC(=O)O)C(=O)N[C@@H](C)C(=O)N[C@@H](CO)C(=O)N1CCC[C@H]1C(=O)N[C@@H](CCC(=O)O)C(=O)N[C@@H](C)C(=O)N[C@@H](CC(C)C)C(=O)N[C@@H](CCC(N)=O)C(=O)N[C@@H](CCCNC(=N)N)C(=O)N[C@@H](Cc1ccc(O)cc1)C(=O)N[C@@H](Cc1ccc(O)cc1)C(=O)N[C@H](C(=O)N[C@@H](CO)C(=O)N[C@@H](CC(C)C)C(=O)N[C@@H](CCCNC(=N)N)C(=O)N[C@@H](Cc1c[nH]cn1)C(=O)N[C@@H](Cc1ccc(O)cc1)C(=O)N[C@@H](Cc1ccc(O)cc1)C(=O)N[C@@H](CC(N)=O)C(=O)N[C@@H](Cc1c[nH]c2ccccc12)C(=O)N[C@@H](CC(C)C)C(=O)N[C@H](C(=O)N[C@@H](CCCNC(=N)N)C(=O)N[C@@H](CCC(N)=O)C(=O)N[C@@H](CCCNC(=N)N)C(=O)N[C@@H](Cc1ccc(O)cc1)C(N)=O)[C@@H](C)O)C(C)C` [Compound 115, N{alpha-4}-(3-methylbutanoyl)-N{epsilon-7}-[2-(2-{2-[2-(2-{2-[(4S)-4-carboxy-4-(17-carboxyheptadecanamido)butanamido]ethoxy}ethoxy)acetamido]ethoxy}ethoxy)acetamido]-[4A,7K,9E,11E,16A,18Q,22V,28Y,30W,31L]hPYY (4-36)], for which the pKi in assay [1] was 8.71. Also, the “Acute Food Intake 24 h [% vehicle]” value in the assay on normal NMRI mice worked out at 49 % vehicle.

Regarding `CC[C@H](C)[C@H](NC(=O)[C@H](CCC(=O)O)NC(=O)[C@H](CCC(=O)O)NC(=O)[C@@H]1CCCN1C(=O)[C@H](C)NC(=O)[C@H](C)NC(=O)[C@H](CC(=O)O)NC(=O)[C@H](CCC(=O)O)NC(=O)[C@H](CCC(=O)O)NC(=O)[C@@H]1CCCN1C(=O)[C@H](CCCCNC(=O)COCCOCCNC(=O)COCCOCCNC(=O)CC[C@H](NC(=O)CCCCCCCCCCCCCCCCC(=O)O)C(=O)O)NC(=O)[C@H](CCC(=O)O)NC(=O)[C@@H]1CCCN1C(=O)[C@H](C)NC(=O)CC(C)C)C(=O)N[C@@H](CCC(N)=O)C(=O)N[C@@H](CCCNC(=N)N)C(=O)N[C@@H](Cc1ccc(O)cc1)C(=O)N[C@@H](Cc1ccc(O)cc1)C(=O)N[C@H](C(=O)N[C@@H](CO)C(=O)N[C@@H](CC(C)C)C(=O)N[C@@H](CCCNC(=N)N)C(=O)N[C@@H](Cc1c[nH]cn1)C(=O)N[C@@H](Cc1ccc(O)cc1)C(=O)N[C@@H](Cc1ccc(O)cc1)C(=O)N[C@@H](CC(N)=O)C(=O)N[C@@H](Cc1c[nH]c2ccccc12)C(=O)N[C@@H](CC(C)C)C(=O)N[C@H](C(=O)N[C@@H](CCCNC(=N)N)C(=O)N[C@@H](CCC(N)=O)C(=O)N[C@@H](CCCNC(=N)N)C(=O)N[C@@H](Cc1ccc(O)cc1)C(N)=O)[C@@H](C)O)C(C)C` [Compound 124, N{alpha-4}-(3-methylbutanoyl)-N{epsilon-7}-[2-(2-{2-[2-(2-{2-[(4S)-4-carboxy-4-(17-carboxyheptadecanamido)butanamido]ethoxy}ethoxy)acetamido]ethoxy}ethoxy)acetamido]-[4A,7K,9E,13A,17I,18Q,22V,28Y,30W,31L]hPYY (4-36)], the negative-log Ki (pKi) in assay [1] is 9.30. In the assay on normal NMRI mice, the “Acute Food Intake 24 h [% vehicle]” value is on record as 58 % vehicle.

On to `CC(C)CC(=O)N[C@@H](C)C(=O)N1CCC[C@H]1C(=O)N[C@@H](CCC(=O)O)C(=O)N[C@@H](CCCCNC(=O)COCCOCCNC(=O)COCCOCCNC(=O)CC[C@H](NC(=O)CCCCCCCCCCCCCCCCC(=O)O)C(=O)O)C(=O)N1CCC[C@H]1C(=O)N[C@@H](CCC(=O)O)C(=O)N[C@@H](CCC(=O)O)C(=O)N[C@@H](CC(=O)O)C(=O)N[C@@H](C)C(=O)N[C@@H](CO)C(=O)N1CCC[C@H]1C(=O)N[C@@H](CCC(=O)O)C(=O)N[C@@H](CCC(=O)O)C(=O)N[C@@H](CC(C)C)C(=O)N[C@@H](CCC(N)=O)C(=O)N[C@@H](CCCCN)C(=O)N[C@@H](Cc1ccc(O)cc1)C(=O)N[C@@H](Cc1ccc(O)cc1)C(=O)N[C@H](C(=O)N[C@H](C(=O)N[C@@H](CC(C)C)C(=O)N[C@@H](CCCNC(=N)N)C(=O)N[C@@H](Cc1c[nH]cn1)C(=O)N[C@@H](Cc1ccc(O)cc1)C(=O)N[C@@H](Cc1ccc(O)cc1)C(=O)N[C@@H](CC(N)=O)C(=O)N[C@@H](Cc1c[nH]c2ccccc12)C(=O)N[C@@H](CC(C)C)C(=O)N[C@H](C(=O)N[C@@H](CCCNC(=N)N)C(=O)N[C@@H](CCC(N)=O)C(=O)N[C@@H](CCCNC(=N)N)C(=O)N[C@@H](Cc1ccc(O)cc1)C(N)=O)[C@@H](C)O)[C@@H](C)O)C(C)C` [Compound 132, N{alpha-4}-(3-methylbutanoyl)-N{epsilon-7}-[2-(2-{2-[2-(2-{2-[(4S)-4-carboxy-4-(17-carboxyheptadecanamido)butanamido]ethoxy}ethoxy)acetamido]ethoxy}ethoxy)acetamido]-[4A,7K,9E,18Q,19K,22V,23T,28Y,30W,31L]hPYY (4-36)], for which the pKi in assay [1] is 8.93. In the assay with normal NMRI mice, the “Acute Food Intake 24 h [% vehicle]” value amounted to 64 % vehicle.

Consider `CC(C)CC(=O)N[C@@H](C)C(=O)N1CCC[C@H]1C(=O)N[C@@H](CCC(=O)O)C(=O)N[C@@H](CCCCNC(=O)COCCOCCNC(=O)COCCOCCNC(=O)CC[C@H](NC(=O)CCCCCCCCCCCCCCCCC(=O)O)C(=O)O)C(=O)N1CCC[C@H]1C(=O)N[C@@H](CCC(=O)O)C(=O)N[C@@H](CCC(=O)O)C(=O)N[C@@H](CC(=O)O)C(=O)N[C@@H](C)C(=O)N[C@@H](CO)C(=O)N1CCC[C@H]1C(=O)N[C@@H](CCC(=O)O)C(=O)N[C@@H](CCC(=O)O)C(=O)N[C@H](C(=O)N[C@@H](CCC(N)=O)C(=O)N[C@@H](CCCNC(=N)N)C(=O)N[C@@H](Cc1ccc(O)cc1)C(=O)N[C@@H](Cc1ccc(O)cc1)C(=O)N[C@H](C(=O)N[C@@H](CCC(=O)O)C(=O)N[C@@H](CC(C)C)C(=O)N[C@@H](CCCNC(=N)N)C(=O)N[C@@H](Cc1c[nH]cn1)C(=O)N[C@@H](Cc1ccc(O)cc1)C(=O)N[C@@H](Cc1ccc(O)cc1)C(=O)N[C@@H](CC(N)=O)C(=O)N[C@@H](Cc1c[nH]c2ccccc12)C(=O)N[C@@H](CC(C)C)C(=O)N[C@H](C(=O)N[C@@H](CCCNC(=N)N)C(=O)N[C@@H](CCC(N)=O)C(=O)N[C@@H](CCCNC(=N)N)C(=O)N[C@@H](Cc1ccc(O)cc1)C(N)=O)[C@@H](C)O)C(C)C)C(C)C` [Compound 133, N{alpha-4}-(3-methylbutanoyl)-N{epsilon-7}-[2-(2-{2-[2-(2-{2-[(4S)-4-carboxy-4-(17-carboxyheptadecanamido)butanamido]ethoxy}ethoxy)acetamido]ethoxy}ethoxy)acetamido]-[4A,7K,9E,17V,18Q,22V,23E,28Y,30W,31L]hPYY (4-36)], for which the pKi in assay [1] is 8.64. Moreover, in the assay with normal NMRI mice, the “Acute Food Intake 24 h [% vehicle]” value stood at 57 % vehicle.
